According to patent US11667602B2, “Compounds and their use” (AstraZeneca AB, priority 2020, dated 2023):
Read-outs that look alike come from different tables or passages of the source.

Target: T1, human RXFP1 (Homo sapiens, UniProt Q9HBX9)
T1 sequence (Q9HBX9 1-757): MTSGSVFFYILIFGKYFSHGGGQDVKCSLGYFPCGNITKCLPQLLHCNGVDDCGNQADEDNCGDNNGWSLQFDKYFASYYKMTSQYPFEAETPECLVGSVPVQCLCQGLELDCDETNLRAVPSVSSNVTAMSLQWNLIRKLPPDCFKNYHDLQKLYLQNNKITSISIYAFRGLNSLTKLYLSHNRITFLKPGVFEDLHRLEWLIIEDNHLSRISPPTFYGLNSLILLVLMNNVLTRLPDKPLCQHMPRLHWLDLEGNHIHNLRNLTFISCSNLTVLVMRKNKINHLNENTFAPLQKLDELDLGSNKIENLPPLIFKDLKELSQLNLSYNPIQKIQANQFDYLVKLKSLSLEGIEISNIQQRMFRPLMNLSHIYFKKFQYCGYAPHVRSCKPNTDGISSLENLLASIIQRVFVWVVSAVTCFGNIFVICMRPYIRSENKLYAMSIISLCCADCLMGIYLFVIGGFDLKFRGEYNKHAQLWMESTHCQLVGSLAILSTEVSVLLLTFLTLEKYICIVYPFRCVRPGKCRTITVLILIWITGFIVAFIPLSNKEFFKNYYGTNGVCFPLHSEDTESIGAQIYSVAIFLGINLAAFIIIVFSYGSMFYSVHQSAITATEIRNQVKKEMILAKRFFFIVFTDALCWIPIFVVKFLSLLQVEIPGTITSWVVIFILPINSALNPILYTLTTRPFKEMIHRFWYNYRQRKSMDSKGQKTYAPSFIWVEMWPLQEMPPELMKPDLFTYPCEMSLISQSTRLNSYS
Experiment: RXFP1 Hu cAMP (Test A)
Type: cell-based
Parameters: expressed in transfected cells; host or cells: Jump-In T-REx CHO-K1 cells (ThermoFisher), induced with 10 ng/ml doxycycline for 24 h
How it was run: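 Competitive HTRF cAMP readout (2 h, room temperature) in CHO-K1 cells stably expressing human RXFP1, induced with 10 ng/ml doxycycline for 24 h; IBMX 0.5 mM final.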

[1] = RXFP1 Hu cAMP, read-out: Test A EC50

Molecule	Test A Sinf (RXFP1 Hu cAMP) [%]	EC50 [1] [nM]	EC50 (Test A EC50, RXFP1 Hu cAMP) [nM]
COc1cc(C#N)c(O[C@H]2CC[C@@](C)(C(=O)O)CC2)cc1C(=O)N[C@@H]1[C@H]2CC[C@H](C2)[C@@H]1C(=O)NC[C@@H](C)c1ccccc1 [Example 125]	116	16	
COc1cc(F)c(-c2ccc(C(N)(CO)CO)cc2)cc1C(=O)N[C@@H]1[C@H]2CC[C@H](C2)[C@@H]1C(=O)Nc1cccc(S(=O)(=O)C(F)(F)F)c1 [Example 265, (1R,2S,3R,4S)-3-(4′-(2-Amino-1,3-dihydroxypropan-2-yl)-6-fluoro-4-methoxy-[1,1′-biphenyl]-3-carboxamido)-N-(3-((trifluoromethyl)sulfonyl)phenyl)bicyclo[2.2.1]heptane-2-carboxamide]	78		
COc1cc(F)c(-c2c[nH]c(C(=O)O)c2)cc1C(=O)N[C@H]1[C@@H](C(=O)Nc2cccc(S(=O)(=O)C(F)(F)F)c2)[C@@H]2C=C[C@H]1C2 (racemic) [Example 229]	55	3300	
COc1cc(F)c(-c2ccc(C(=O)O)s2)cc1C(=O)N[C@H]1[C@@H](C(=O)Nc2cccc(S(=O)(=O)C(F)(F)F)c2)[C@@H]2C=C[C@H]1C2 (racemic) [Example 285]	75	300	
COCc1cc(OC)c(C(=O)N[C@@H]2[C@H]3CC[C@H](C3)[C@@H]2C(=O)NCC2(C)CCC2)cc1O[C@H]1CC[C@@](C)(C(=O)O)CC1 [Example 402]	131		620
(1R,4s)-4-(2-Fluoro-4-methoxy-5-(((1S*,2S*,3R*,4R*)-3-((3-((trifluoromethyl)sulfonyl)phenyl)carbamoyl)bicyclo[2.2.1]heptan-2-yl)carbamoyl)phenoxy)-1-methylcyclohexane-1-carboxylic acid [Example 587]	113		
COc1cc(C#N)c(O[C@H]2CC[C@@](C)(C(=O)O)CC2)cc1C(=O)N[C@@H]1[C@H]2CC[C@H](C2)[C@@H]1C(=O)NC1CCCC1 [Example 139]	95	160	
COc1cc(C#N)c(O[C@H]2CC[C@@](C)(C(=O)O)CC2)cc1C(=O)N[C@@H]1[C@H]2CC[C@H](C2)[C@@H]1C(=O)NC[C@H]1C[C@@H](C)C1 [Example 124]	101	160	
COc1cc(F)c(-c2cnc([C@@H]3C[C@H]3C(=O)O)cn2)cc1C(=O)N[C@@H]1[C@H]2CC[C@H](C2)[C@@H]1C(=O)Nc1cccc(S(=O)(=O)C(F)(F)F)c1 (single isomer, unassigned) [Example 264, (1R*,2R*)-2-(5-(2-Fluoro-4-methoxy-5-(((1S,2R,3S,4R)-3-((3-((trifluoromethyl)sulfonyl)phenyl)carbamoyl)bicyclo[2.2.1]heptan-2-yl)carbamoyl)phenyl)pyrazin-2-yl)cyclopropane-1-carboxylic acid]	101	82	
COc1cc(F)c(-c2nc(C(=O)O)co2)cc1C(=O)N[C@H]1[C@@H](C(=O)Nc2cccc(S(=O)(=O)C(F)(F)F)c2)[C@@H]2C=C[C@H]1C2 (racemic) [Example 275, rac-2-(2-Fluoro-4-methoxy-5-(((1R,2R,3S,4S)-3-((3-((trifluoromethyl)sulfonyl)phenyl)carbamoyl)bicyclo[2.2.1]hept-5-en-2-yl)carbamoyl)phenyl)oxazole-4-carboxylic acid]	83	11000	
COc1cc(F)c(-c2ncc(C(=O)O)s2)cc1C(=O)N[C@H]1[C@@H](C(=O)Nc2cccc(S(=O)(=O)C(F)(F)F)c2)[C@@H]2C=C[C@H]1C2 (racemic) [Example 287]	111	570	
COc1cc(F)c(O[C@H]2CC[C@@](C)(C(=O)O)CC2)cc1C(=O)N[C@@H]1COCC[C@@H]1C(=O)Nc1cccc(S(=O)(=O)C(F)(F)F)c1 (racemic) [Example 340]	100	1800	
COc1cc(C#N)c(O[C@H]2CC[C@@](C)(C(=O)O)CC2)cc1C(=O)N[C@@H]1[C@H]2CC[C@H](C2)[C@@H]1C(=O)NCCCOC(C)C [Example 122]	71	1300	

Continued, in another order:

Test A Sinf (RXFP1 Hu cAMP) [%]	EC50 [1] [nM]	Molecule	EC50 (Test A EC50, RXFP1 Hu cAMP) [nM]
93	690	COc1cc(F)c(O[C@H]2CC[C@@](C)(C(=O)O)CC2)cc1C(=O)N[C@@H]1[C@H]2CC[C@H](C2)[C@@H]1C(=O)NCC1CC(F)(F)C1 [Example 620]	
86	200	COc1cc(F)c(O[C@H]2CC[C@@](C)(C(=O)O)CC2)cc1C(=O)N[C@@H]1CCOC[C@@H]1C(=O)Nc1cccc(S(=O)(=O)C(F)(F)F)c1 (racemic) [Example 341]	
	> 40000	COc1cc(F)c(O[C@H]2CC[C@@](C)(C(=O)O)CC2)cc1C(=O)N[C@@H]1[C@H]2CC[C@H](C2)[C@@H]1C(=O)NCC(C)(C)O [Example 611]	
	> 40000	COc1cc(F)c(O[C@H]2CC[C@@](C)(C(=O)O)CC2)cc1C(=O)NC1CC(OC)CC1C(=O)NCC(C)(C)C (single isomer, unassigned) [Example 546, (1R,4s)-4-(2-Fluoro-4-methoxy-5-(((1S*,2R*,4R*)-4-methoxy-2-(neopentylcarbamoyl)cyclopentyl)carbamoyl)phenoxy)-1-methylcyclohexane-1-carboxylic acid]	
115	6.4	COc1cc(F)c(O[C@H]2CC[C@@](C)(C(=O)O)CC2)cc1C(=O)N[C@@H]1CC[C@@H]1C(=O)Nc1ccc(F)c(S(F)(F)(F)(F)F)c1 (racemic) [Example 347]	
95	7.6	CC1(CNC(=O)C2C3CCC(CC3)C2NC(=O)c2cc(O[C@H]3CC[C@@](C)(C(=O)O)CC3)c(C#N)cc2F)CCC1 (single isomer, unassigned) [Example 588, (1R,4s)-4-(2-Cyano-4-fluoro-5-(((2S*,3R*)-3-(((1-methylcyclobutyl)methyl)carbamoyl)bicyclo[2.2.2]octan-2-yl)carbamoyl)phenoxy)-1-methylcyclohexane-1-carboxylic acid]	
92	160	COc1cc(F)c(O[C@H]2CC[C@@](C)(C(=O)O)CC2)cc1C(=O)N[C@@H]1[C@H]2CC[C@H](C2)[C@@H]1C(=O)N[C@H]1CCCN(S(=O)(=O)C(F)(F)F)C1 [Example 607]	
90	130	CC1(CNC(=O)[C@H]2[C@@H]3CC[C@@H](C3)[C@H]2NC(=O)c2cc(O[C@H]3CC[C@@](C)(C(=O)O)CC3)c(F)cc2Cl)CCC1 [Example 398, (1S,4s)-4-(4-Chloro-2-fluoro-5-(((1S,2R,3S,4R)-3-(((1-methylcyclobutyl)methyl)carbamoyl)bicyclo[2.2.1]heptan-2-yl)carbamoyl)phenoxy)-1-methylcyclohexane-1-carboxylic acid]	
118	540	COc1cc(F)c(O[C@H]2CC[C@@](O)(C(=O)O)CC2)cc1C(=O)N[C@@H]1[C@H]2CC[C@H](C2)[C@@H]1C(=O)NCC1(C)CCC1 [Example 507, (1R,4r)-4-(2-Fluoro-4-methoxy-5-(((1S,2R,3S,4R)-3-(((1-methylcyclobutyl)methyl)carbamoyl)bicyclo[2.2.1]heptan-2-yl)carbamoyl)phenoxy)-1-hydroxycyclohexane-1-carboxylic acid]	
91	160	COc1cc(F)c(OCCCCCC(=O)O)cc1C(=O)N[C@H]1[C@@H](C(=O)Nc2cccc(S(=O)(=O)C(F)(F)F)c2)[C@@H]2C=C[C@H]1C2 (racemic) [Example 455]	
104	540	COc1cc(F)c(O[C@H]2CC[C@@](C)(C(=O)O)CC2)cc1C(=O)N[C@@H]1C[C@H](OC)C[C@@H]1C(=O)Nc1cccc(S(=O)(=O)C(F)(F)F)c1 (stereo in doubt) [Example 335]	
104	8	COc1cc(F)c(O[C@H]2CC[C@@](C)(C(=O)O)CC2)cc1C(=O)NC1CCCCCC1C(=O)Nc1cccc(S(=O)(=O)C(F)(F)F)c1 (single isomer, unassigned) [Example 516, (1R,4s)-4-(2-Fluoro-4-methoxy-5-(((1S*,2R*)-2-((3-((trifluoromethyl)sulfonyl)phenyl)carbamoyl)cycloheptyl)carbamoyl)phenoxy)-1-methylcyclohexane-1-carboxylic acid]	
117	21000	COc1cc(F)c(O[C@H]2CC[C@@](CO)(C(=O)O)CC2)cc1C(=O)NC1CC(OC)CC1C(=O)NCC(C)(C)C (single isomer, unassigned) [Example 548, (1R,4s)-4-(2-Fluoro-4-methoxy-5-(((1S*,2R*,4R*)-4-methoxy-2-(neopentylcarbamoyl)cyclopentyl)carbamoyl)phenoxy)-1-(hydroxymethyl)cyclohexane-1-carboxylic acid]	
